Experimental data taken from the supplement of paper PMC10627819.

Assays:
Settings in all cases: main component drawn
[1] = tested on: B. subtilis 168; assay: fitness (endpoint OD595 vs no drug) (fraction); higher = more growth
Summary of the method: (§1)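 With the first reading as background, OD595 was measured every 30 min for 14 h in 384-well plates kept at 37 °C and inoculated at OD595 0.01. TSB, LB Lennox or CY was the medium. Fitness is the optical density at the transition into stationary phase divided by the robust mean of no-drug control wells, with a cap of 1.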

[2] = tested on: S. aureus Newman; assay: as above
Summary of the method: as §1

[3] = tested on: S. pneumoniae D39V; assay: as above
Summary of the method: as §1

[4] = tested on: B. subtilis 168; assay: Bliss interaction score (quartile over a dose matrix) (fitness difference); higher = more antagonism (negative = synergy)
Summary of the method: (§2)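 Values were capped at 1 after dividing OD595 at stationary-phase entry by the plate's robust no-drug mean. This ratio is fitness, and single-drug fitness was inferred from the combination data. The Bliss score is observed minus product-expected fitness, given as quartiles over technical, biological and donor/recipient replicates.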

[5] = tested on: S. aureus DSM 20231; assay: as above
Summary of the method: as §2

[6] = tested on: S. aureus Newman; assay: as above
Summary of the method: as §2

[7] = tested on: S. pneumoniae D39V; assay: as above
Summary of the method: as §2
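For Bliss interaction score (quartile over a dose matrix) in this document: first quartile when negative (synergy) and third quartile when positive (antagonism).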

CNC(C)C1CCC(N)C(OC2C(N)CC(N)C(OC3OCC(C)(O)C(NC)C3O)C2O)O1 (stereo not given) [Gentamicin] + CN(N=O)C(=O)N[C@@H](C=O)[C@@H](O)[C@H](O)[C@H](O)CO [Streptozotocin]
fitness
Settings | partner 0.15 µg/mL | partner 0.3 µg/mL | partner 0.6 µg/mL | partner 1.2 µg/mL | partner 2.4 µg/mL | partner 4.8 µg/mL
[1], first compound 0.0625 µg/mL | 0.949 | 0.952 | 0.956 | – | – | –
[1], first compound 0.25 µg/mL | 0.161 | 0.164 | 0.12 | – | – | –
[2], first compound 0.5 µg/mL | 0.871 | 0.801 | 0.708 | – | – | –
[2], first compound 1 µg/mL | 0.888 | 0.844 | 0.724 | – | – | –
[2], first compound 2 µg/mL | 0.898 | 0.856 | 0.732 | – | – | –
[3], first compound 2 µg/mL | – | – | – | 0.892 | 0.949 | 0.914
[3], first compound 4 µg/mL | – | – | – | 0.93 | 0.966 | 0.949
[3], first compound 8 µg/mL | – | – | – | 0.942 | 0.967 | 0.878

fitness, [2], one replicate
Settings | first compound 0.375 µg/mL | first compound 0.75 µg/mL | first compound 1.5 µg/mL
partner 0.15 µg/mL | 0.851 | 0.848 | 0.777
partner 0.3 µg/mL | 0.717 | 0.687 | 0.706
partner 0.6 µg/mL | 0.534 | 0.585 | 0.561

Settings | Bliss interaction score
[4] | -0.125
[5] | -0.0423
[6] | 0.0523
[7] | 0.0654

CNC(C)C1CCC(N)C(OC2C(N)CC(N)C(OC3OCC(C)(O)C(NC)C3O)C2O)O1 (stereo not given) [Gentamicin] + CN[C@@H]1[C@H](O)[C@H](NC)[C@H]2O[C@@]3(O)C(=O)C[C@@H](C)O[C@H]3O[C@@H]2[C@H]1O [Spectinomycin]
fitness
Settings | partner 2 µg/mL | partner 4 µg/mL | partner 8 µg/mL | partner 16 µg/mL
[1], first compound 0.0625 µg/mL | 0.951 | 0.988 | 0.814 | –
[1], first compound 0.25 µg/mL | 0.325 | 0.148 | – | –
[2], first compound 0.375 µg/mL | – | 0.915 | 0.984 | 0.961
[2], first compound 0.5 µg/mL | – | 0.931 | 0.966 | 0.891
[2], first compound 0.75 µg/mL | – | 0.928 | ≥ 1 | 0.95
[2], first compound 1 µg/mL | – | 0.993 | 0.991 | 0.933
[2], first compound 1.5 µg/mL | – | 0.923 | ≥ 1 | 0.96
[2], first compound 2 µg/mL | – | ≥ 1 | ≥ 1 | –
[3], first compound 2 µg/mL | – | 0.964 | 0.901 | 0.663
[3], first compound 4 µg/mL | – | 0.914 | 0.807 | 0.643
[3], first compound 8 µg/mL | – | 0.957 | 0.879 | 0.645

fitness, [2], one replicate
Settings | first compound 1 µg/mL | first compound 2 µg/mL | first compound 4 µg/mL
partner 16 µg/mL | – | – | 0.0712
partner 32 µg/mL | 0.507 | 0.101 | 0.0361
partner 64 µg/mL | 0.0654 | 0.0856 | 0.0746

Settings | Bliss interaction score
[4] | 0.0812
[5] | 0.044
[6] | 0.0532
[7] | 0.0871

CNC(C)C1CCC(N)C(OC2C(N)CC(N)C(OC3OCC(C)(O)C(NC)C3O)C2O)O1 (stereo not given) [Gentamicin] + CN[C@@H]1[C@H](O[C@H]2[C@H](O[C@H]3[C@H](O)[C@@H](O)[C@H](N=C(N)N)[C@@H](O)[C@@H]3N=C(N)N)O[C@@H](C)[C@]2(O)C=O)O[C@@H](CO)[C@H](O)[C@H]1O [Streptomycin]
fitness
Settings | partner 1 µg/mL | partner 2 µg/mL | partner 4 µg/mL | partner 8 µg/mL
[1], first compound 0.125 µg/mL | – | – | – | 0.0351
[1], first compound 0.25 µg/mL | – | 0.0785 | 0.05 | 0.0399
[2], first compound 0.375 µg/mL | ≥ 1 | 0.929 | – | –
[2], first compound 0.5 µg/mL | 0.957 | 0.953 | 0.978 | –
[2], first compound 0.75 µg/mL | 0.99 | 0.848 | – | –
[2], first compound 1 µg/mL | 0.991 | ≥ 1 | ≥ 1 | –
[2], first compound 2 µg/mL | 0.996 | ≥ 1 | 0.946 | –
[3], first compound 2 µg/mL | – | 0.918 | 0.922 | 0.899
[3], first compound 4 µg/mL | – | 0.895 | 0.942 | 0.848
[3], first compound 8 µg/mL | – | 0.912 | 0.912 | 0.836

[3], partner 16 µg/mL, one replicate
Settings | fitness
first compound 2 µg/mL | 0.779
first compound 4 µg/mL | 0.736
first compound 8 µg/mL | 0.628

Settings | Bliss interaction score
[4] | -0.17
[5] | -0.404
[6] | 0.0694
[7] | 0.0468

CNC(C)C1CCC(N)C(OC2C(N)CC(N)C(OC3OCC(C)(O)C(NC)C3O)C2O)O1 (stereo not given) [Gentamicin] + COc1c(N2C[C@@H]3CCCN[C@@H]3C2)c(F)cc2c(=O)c(C(=O)O)cn(C3CC3)c12 [Moxifloxacin]
Settings | fitness
[1], first compound 0.0625 µg/mL, partner 0.0625 µg/mL | 0.0368
[1], first compound 0.0625 µg/mL, partner 0.125 µg/mL | 0.048
[1], first compound 0.0625 µg/mL, partner 2 µg/mL | 0.0515
[1], first compound 0.0625 µg/mL, partner 4 µg/mL | 0.0389
[1], first compound 0.0625 µg/mL, partner 8 µg/mL | 0.0196
[1], first compound 0.125 µg/mL, partner 0.0625 µg/mL | 0.0582
[1], first compound 0.125 µg/mL, partner 0.125 µg/mL | 0.0573
[1], first compound 0.125 µg/mL, partner 2 µg/mL | 0.0401
[1], first compound 0.125 µg/mL, partner 4 µg/mL | 0.0418
[1], first compound 0.125 µg/mL, partner 8 µg/mL | 0.0222
[1], first compound 0.25 µg/mL, partner 0.0312 µg/mL | 0.0645
[1], first compound 0.25 µg/mL, partner 0.0625 µg/mL | 0.069
[1], first compound 0.25 µg/mL, partner 0.125 µg/mL | 0.069
[1], first compound 0.25 µg/mL, partner 2 µg/mL | 0.0498
[1], first compound 0.25 µg/mL, partner 4 µg/mL | 0.0517
[1], first compound 0.25 µg/mL, partner 8 µg/mL | 0.0301
[2], first compound 0.375 µg/mL, partner 0.0075 µg/mL | 0.733
[2], first compound 0.375 µg/mL, partner 0.015 µg/mL | 0.515
[2], first compound 0.375 µg/mL, partner 0.03 µg/mL | 0.153
[2], first compound 0.5 µg/mL, partner 0.0075 µg/mL | 0.801
[2], first compound 0.5 µg/mL, partner 0.015 µg/mL | 0.74
[2], first compound 0.75 µg/mL, partner 0.0075 µg/mL | 0.722
[2], first compound 0.75 µg/mL, partner 0.015 µg/mL | 0.544
[2], first compound 0.75 µg/mL, partner 0.03 µg/mL | 0.189
[2], first compound 1 µg/mL, partner 0.0075 µg/mL | 0.841
[2], first compound 1 µg/mL, partner 0.015 µg/mL | 0.776
[2], first compound 1.5 µg/mL, partner 0.015 µg/mL | 0.195
[2], first compound 1.5 µg/mL, partner 0.03 µg/mL | 0.0456
[2], first compound 2 µg/mL, partner 0.0075 µg/mL | 0.879
[2], first compound 2 µg/mL, partner 0.015 µg/mL | 0.777
[3], first compound 2 µg/mL, partner 0.005 µg/mL | ≥ 1
[3], first compound 2 µg/mL, partner 0.01 µg/mL | 0.987
[3], first compound 2 µg/mL, partner 0.02 µg/mL | 0.949
[3], first compound 2 µg/mL, partner 0.0312 µg/mL | 0.0909
[3], first compound 2 µg/mL, partner 0.0625 µg/mL | 0.0352
[3], first compound 2 µg/mL, partner 0.125 µg/mL | 0.0208
[3], first compound 4 µg/mL, partner 0.005 µg/mL | 0.999
[3], first compound 4 µg/mL, partner 0.01 µg/mL | 0.998
[3], first compound 4 µg/mL, partner 0.02 µg/mL | 0.987
[3], first compound 4 µg/mL, partner 0.0312 µg/mL | 0.062
[3], first compound 4 µg/mL, partner 0.0625 µg/mL | 0.0383
[3], first compound 4 µg/mL, partner 0.125 µg/mL | 0.0445
[3], first compound 8 µg/mL, partner 0.005 µg/mL | 0.972
[3], first compound 8 µg/mL, partner 0.01 µg/mL | 0.972
[3], first compound 8 µg/mL, partner 0.02 µg/mL | 0.925
[3], first compound 8 µg/mL, partner 0.0312 µg/mL | 0.0628
[3], first compound 8 µg/mL, partner 0.0625 µg/mL | 0.0435
[3], first compound 8 µg/mL, partner 0.125 µg/mL | 0.0398

Settings | Bliss interaction score
[4] | 0.0561
[5] | 0.0845
[6] | 0.0666
[7] | -0.0566

CNC(C)C1CCC(N)C(OC2C(N)CC(N)C(OC3OCC(C)(O)C(NC)C3O)C2O)O1 (stereo not given) [Gentamicin] + COc1ccc(C[C@H](N)C(=O)N[C@H]2[C@@H](O)[C@H](n3cnc4c(N(C)C)ncnc43)O[C@@H]2CO)cc1 [Puromycin]
Settings | fitness
[1], first compound 0.0625 µg/mL, partner 0.39 µg/mL | 0.889
[1], first compound 0.25 µg/mL, partner 0.39 µg/mL | 0.0531
[1], first compound 0.25 µg/mL, partner 0.78 µg/mL | 0.0448
[1], first compound 0.25 µg/mL, partner 1.56 µg/mL | 0.0402
[2], first compound 0.5 µg/mL, partner 0.39 µg/mL | 0.979
[2], first compound 0.5 µg/mL, partner 0.78 µg/mL | ≥ 1
[2], first compound 0.5 µg/mL, partner 1.56 µg/mL | ≥ 1
[2], first compound 1 µg/mL, partner 0.39 µg/mL | ≥ 1
[2], first compound 1 µg/mL, partner 0.78 µg/mL | ≥ 1
[2], first compound 1 µg/mL, partner 1.56 µg/mL | ≥ 1
[2], first compound 2 µg/mL, partner 0.39 µg/mL | 0.994
[2], first compound 2 µg/mL, partner 0.78 µg/mL | ≥ 1
[2], first compound 2 µg/mL, partner 1.56 µg/mL | ≥ 1
[3], first compound 2 µg/mL, partner 1 µg/mL | 0.955
[3], first compound 2 µg/mL, partner 2 µg/mL | 0.915
[3], first compound 4 µg/mL, partner 1 µg/mL | 0.984
[3], first compound 8 µg/mL, partner 1 µg/mL | 0.906
[3], first compound 8 µg/mL, partner 4 µg/mL | 0.19

fitness, [2], one replicate
Settings | first compound 0.375 µg/mL | first compound 0.75 µg/mL | first compound 1.5 µg/mL
partner 0.39 µg/mL | ≥ 1 | ≥ 1 | 0.973
partner 0.78 µg/mL | ≥ 1 | ≥ 1 | ≥ 1
partner 1.56 µg/mL | ≥ 1 | ≥ 1 | ≥ 1

Settings | Bliss interaction score
[4] | -0.204
[5] | -0.278
[6] | 0.0455
[7] | -0.289
